The source of these data is ChEMBL document CHEMBL1149418, “Intermolecular interactions in the crystal structures of potential HIV-1 integrase inhibitors” (Bioorg Med Chem Lett, 2006).

The target in this experiment is Human immunodeficiency virus type 1 integrase (Human immunodeficiency virus 1, UniProt Q7ZJM1). The experiment in a line: Antiviral activity against HIV1 integrase.
Chain of Human immunodeficiency virus type 1 integrase (Q7ZJM1 whole entry): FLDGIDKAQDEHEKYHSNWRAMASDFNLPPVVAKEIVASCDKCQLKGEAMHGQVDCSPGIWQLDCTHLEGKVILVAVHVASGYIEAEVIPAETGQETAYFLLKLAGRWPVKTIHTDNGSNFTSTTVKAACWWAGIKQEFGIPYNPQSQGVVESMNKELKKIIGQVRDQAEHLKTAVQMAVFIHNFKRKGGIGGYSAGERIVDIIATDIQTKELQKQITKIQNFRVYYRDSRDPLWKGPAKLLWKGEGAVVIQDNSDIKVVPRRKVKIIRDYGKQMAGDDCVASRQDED

One may read the IC50 as the concentration at which inhibition is half-maximal. Turning to `COC(Nc1cc(Cl)c([N+](=O)[O-])cc1Cl)c1ccc2cccc(O)c2n1` (centres undefined), half-maximal inhibition (IC50) was put at 230 µM.

The molecule `Oc1cccc2ccc(/C=C/c3cccc(Cl)c3)nc12` gave an IC50 of 230 µM.

The molecule `Cc1ccc2c(N=O)ccc(O)c2n1` had an IC50 of more than 333 µM.

In the case of `O=C(O)c1ccc2ccc(/C=C/c3cccc(Cl)c3)nc2c1`, the IC50 was found to be 230 µM.
